Experimental data as given in patent US6924314B2, “Compounds for the treatment of metabolic disorders” (Wellstat Therapeutics Corporation, priority 2001, dated 2005).

What was measured:
db/db mice [1] = assay: Antidiabetic effects in db/db mice, 2 weeks (Example I); assay type: in vivo, C57BL/Ksola mice; details: for Glucose / Glucose (% of Control): nonfasting; for Free Fatty Acids ± SEM / Triglycerides ± SEM: serum
Description: (§1) db/db mice have a defect in leptin signaling, leading to hyperphagia, obesity and diabetes. Moreover, unlike ob/ob mice on a C57BL/6J background, db/db mice on a C57BL/KS background undergo failure of their insulin-producing pancreatic islet β cells, resulting in progression from hyperinsulinemia (associated with peripheral insulin resistance) to hypoinsulinemic diabetes.
(§2) A minimum of 7 days was allowed for adaptation after arrival.
Treatment cohorts were given daily oral doses of (1% hydroxypropylmethylcellulose), Compounds BI, BO, BP, BQ or BR for 2 weeks. At the end of the treatment period 100 μl of venous blood was withdrawn in a heparinized capillary tube from the retro-orbital sinus of db/db mice for serum chemistry analysis.

db/db mice [2] = assay: Antidiabetic effects in db/db mice, 2 weeks (Example J); assay type: in vivo, C57BL/Ksola mice; details: for Glucose / Glucose (% of Control): nonfasting; for Free Fatty Acids ± SEM / Triglycerides ± SEM: serum, daily oral
Description: as §1, with “islet” for “islet β”
as §2
Treatment cohorts were given daily oral doses of Vehicle (1% hydroxypropylmethylcellulose), Compounds BI, BS, BT, BU, BV or Fenofibrate for 2 weeks. At the end of the treatment period 100 μl of venous blood was withdrawn in a heparinized capillary tube from the retro-orbital sinus of db/db mice for serum chemistry analysis.

[3] = test system: ob/ob obese diabetic mice; assay: Acute hypoglycemic effect in ob/ob obese diabetic mice: Experiment 1; assay type: in vivo
Description: Male ob/ob diabetic mice were randomized into groups of five animals each. Body weights were 50-55 g and blood glucose was approximately 300 mg/dL in the fed state. A single oral dose of a test substance suspended in 0.5% carboxymethylcellulose vehicle was administered by gavage. Blood glucose was measured in blood droplets obtained by nicking a tail vein with a razor using glucometer test strips and a Glucometer Elite XL device (Bayer) at 0, 0.5, 2, 4, 6 and 18 hours after the initial dosing. A 10% reduction in blood glucose versus oral vehicle is considered a positive screening result. Blood glucose reductions were generally maximal at 6 hours after drug administration.

[4] = test system: ob/ob obese diabetic mice; assay: Acute hypoglycemic effect in ob/ob obese diabetic mice: Expt 2; assay type: in vivo; details: single oral dose 250 mg/kg; for change in vivo at 250 mg/kg: Mus musculus, 6 hours, read-out: % Reduction vs Control
Description: Male ob/ob mice (50-55 grams; blood glucose ˜300 mg/dL) were divided into groups of five animals each, and given a single oral dose of test drug (250 mg/kg) suspended in 0.5% carboxymethylcellulose vehicle; a control group received oral vehicle alone.
Six hours after oral administration of test drugs or vehicle (control), blood samples were obtained from a tail vein and glucose content was determined with a glucometer.

[5] = test system: high fat-fed C57Bl/6J mice; assay: Circulating triglycerides, free fatty acids, insulin and leptin in high fat-fed C57Bl/6J mice; assay type: in vivo; details: for Free Fatty Acids / Triglycerides: after 2 weeks of drug treatments
Description: The high fat-fed mouse is a model for the hypertriglyceridemia and high circulating fatty acid levels, and the insulin and leptin resistance that are found in people at risk for and with obesity, diabetes, cardiovascular disease and other disorders. Male C57Bl/6J mice, approximately 8 weeks of age, were randomly assigned into groups of 6 animals. […] Mice were fed a high-fat diet (diet number D12451, containing 45% of calories as fat (Research Diets, New Brunswick, N.J.)) for 6 weeks. […]

[6] = single oral dose by gavage, 6 hours

SMILES: COc1cccc(OC)c1COc1cccc(C(=O)CCC(=O)O)c1 [BO, 4-(3-(2,6-Dimethoxybenzyloxy)phenyl)-4-oxobutyric acid]
- Glucose (db/db mice [1]; 100 mg/kg daily oral): 586 ± 58 mg/dL
- Glucose (% of Control) (db/db mice [1]; 100 mg/kg daily oral): 93 ± 9 % of Control
- Free Fatty Acids ± SEM (db/db mice [1]; 100 mg/kg daily oral): 3766.3 ± 234.5 µM
- Triglycerides ± SEM (db/db mice [1]; 100 mg/kg daily oral): 261.1 ± 24.3 mg/dL

SMILES: Cc1cccc(C)c1COc1cccc(C(=O)CC(C)(C)C(=O)O)c1 [BP, 4-(3-(2,6-Dimethylbenzyloxy)phenyl)-4-oxo-2,2-dimethylbutyric acid]
- Glucose (db/db mice [1]; 100 mg/kg daily oral): 629 ± 86 mg/dL
- Glucose (% of Control) (db/db mice [1]; 100 mg/kg daily oral): 99 ± 14 % of Control
- Free Fatty Acids ± SEM (db/db mice [1]; 100 mg/kg daily oral): 3772.6 ± 182.5 µM
- Triglycerides ± SEM (db/db mice [1]; 100 mg/kg daily oral): 302.1 ± 28.1 mg/dL

SMILES: O=C(O)CCC(=O)c1cccc(OCc2ccc(C(F)(F)F)cc2)c1 [BQ, 4-(3-(4-Trifluoromethylbenzyloxy)phenyl)-4-oxobutyric acid]
- Glucose (db/db mice [1]; 100 mg/kg daily oral): 473 ± 49 mg/dL
- Glucose (% of Control) (db/db mice [1]; 100 mg/kg daily oral): 75 ± 7 % of Control
- Free Fatty Acids ± SEM (db/db mice [1]; 100 mg/kg daily oral): 2825.9 ± 110.9 µM
- Triglycerides ± SEM (db/db mice [1]; 100 mg/kg daily oral): 131.6 ± 20.7 mg/dL

SMILES: O=C(O)CCC(=O)c1cccc(OCC2CCC2)c1 [BR, 4-(3-((Cyclobutyl)-methoxy)phenyl)-4-oxobutyric acid]
- Glucose (db/db mice [1]; 82 mg/kg daily oral): 703 ± 64 mg/dL
- Glucose (% of Control) (db/db mice [1]; 82 mg/kg daily oral): 111 ± 10 % of Control
- Free Fatty Acids ± SEM (db/db mice [1]; 82 mg/kg daily oral): 3653.4 ± 207.5 µM
- Triglycerides ± SEM (db/db mice [1]; 82 mg/kg daily oral): 253.0 ± 32.0 mg/dL

SMILES: Cc1cccc(C)c1COc1cccc(CCCC(=O)O)c1 [BS, 4-(3-(2,6-Dimethylbenzyloxy)phenyl)butyric acid]
- Glucose (db/db mice [2]; 93 mg/kg daily oral): 372.0 ± 53.8 mg/dL
- Glucose (% of Control) (db/db mice [2]; 93 mg/kg daily oral): 54 ± 8 % of Control
- Free Fatty Acids ± SEM (db/db mice [2]; dose per Table 12: 93 mg/kg): 2867.4 ± 267.7 µM
- Triglycerides ± SEM (db/db mice [2]; dose per Table 12: 93 mg/kg): 132.0 ± 15.2 mg/dL

SMILES: COc1cc(C(=O)CCC(=O)O)ccc1OCc1c(C)cccc1C [BT, 4-[[4-(2,6-Dimethylbenzyloxy)-3-methoxy]phenyl]-4-oxobutyric acid]
- Glucose (db/db mice [2]; 107 mg/kg daily oral): 684.3 ± 63.6 mg/dL
- Glucose (% of Control) (db/db mice [2]; 107 mg/kg daily oral): 99 ± 9 % of Control
- Free Fatty Acids ± SEM (db/db mice [2]; dose per Table 12: 107 mg/kg): 3897.7 ± 291.3 µM
- Triglycerides ± SEM (db/db mice [2]; dose per Table 12: 107 mg/kg): 211.5 ± 21.5 mg/dL

SMILES: COc1ccccc1COc1ccc(C(=O)CCC(=O)O)cc1 [Compound AB, 4-(4-(2-Methoxybenzyloxy)phenyl)-4-oxobutyric acid]
- % Reduction vs Control [3, 6]: −39.1 ± 6.4%
- Blood Glucose after 6 hours [3, 6]: 181 ± 19 mg/dL

SMILES: O=C(O)CCC(=O)c1ccc(OCc2ccccn2)cc1 [Compound AF, 4-(4-((2-Pyridinyl)-methoxy)phenyl)-4-oxobutyric acid]
- Blood Glucose after 6 hours [3, 6]: 314 ± 32 mg/dL
- % Reduction vs Control ([3]; single oral dose, 6 hour reading normalized to initial blood glucose of this group, 416 ± 29 mg/dL): −24.6 ± 7.7 %

SMILES: O=C(O)CCC(=O)c1ccc(OCc2ccccc2)cc1 [Compound AG, 4-(4-(Benzyloxy)phenyl)-4-oxobutyric acid]
- % Reduction vs Control [3, 6]: −25.3 ± 7.7%
- Blood Glucose after 6 hours [3, 6]: 222 ± 23 mg/dL

SMILES: O=C(O)CCC(=O)c1ccc(OCc2ccccc2Cl)cc1 [Compound AI, 4-(4-(2-Chlorobenzyloxy)phenyl)-4-oxobutyric acid]
- % Reduction vs Control [3, 6]: −14.1 ± 3.0%
- Blood Glucose after 6 hours [3, 6]: 255 ± 9 mg/dL

SMILES: O=C(O)CCC(=O)c1ccc(OCCc2ccccc2F)cc1 [Compound AJ, 4-(4-(2-(2-Fluorophenyl)ethoxy)phenyl)-4-oxobutyric acid]
- % Reduction vs Control [3, 6]: −36.0 ± 4.7%
- Blood Glucose after 6 hours [3, 6]: 190 ± 14 mg/dL

SMILES: CCOC(=O)CCC(=O)c1ccc(OCc2ccccc2F)cc1 [Compound AK, Ethyl 4-(4-(2-fluorobenzyloxyl)phenyl)-4-oxobutyrate]
- % Reduction vs Control [3, 6]: −29.3 ± 3.4%
- Blood Glucose after 6 hours [3, 6]: 210 ± 10 mg/dL

SMILES: Cc1ccccc1COc1ccc(C(=O)CCC(=O)O)cc1 [Compound AL, 4-(4-(2-Methylbenzyloxy)phenyl)-4-oxobutyric acid]
- % Reduction vs Control [3, 6]: −43.4 ± 4.4%
- Blood Glucose after 6 hours [3, 6]: 168 ± 13 mg/dL

SMILES: Cc1ccccc1COc1cccc(C(=O)CCC(=O)O)c1 [Compound AN, 4-(3-(2-Methylbenzyloxy)phenyl)-4-oxobutyric acid]
- change in vivo at 250 mg/kg [4]: -50.2 ± 4.5%
- Blood Glucose after 6 hours [4]: 152 ± 11 mg/dL

SMILES: CCOC(=O)CCC(=O)c1ccc(OCc2c(F)cccc2F)cc1 [Compound AQ, Ethyl 4-(4-(2,6-difluorobenzyloxyl)phenyl)-4-oxobutyrate]
- change in vivo at 250 mg/kg [4]: -27.9 ± 4.2%
- Blood Glucose after 6 hours [4]: 220 ± 17 mg/dL

SMILES: O=C(O)CCC(=O)c1ccc(OCCc2cccs2)cc1 [Compound AR, 4-(4-(2-(2-Thienyl)ethoxy)phenyl)-4-oxobutyric acid]
- change in vivo at 250 mg/kg [4]: -41.3 ± 4.2%
- Blood Glucose after 6 hours [4]: 179 ± 14 mg/dL

SMILES: O=C(O)CCC(=O)c1c(F)cccc1F [Compound AS, 4-(2,6-Difluorophenyl)-4-oxobutyric acid]
- change in vivo at 250 mg/kg [4]: -45.2 ± 2%
- Blood Glucose after 6 hours [4]: 167 ± 28 mg/dL

SMILES: Cc1ccc(C)c(COc2ccc(C(=O)CCC(=O)O)cc2)c1 [Compound AT, 4-(4-(2,5-Dimethylbenzyloxy)phenyl)-4-oxobutyric acid]
- change in vivo at 250 mg/kg [4]: -35.1 ± 2.3%
- Blood Glucose after 6 hours [4]: 198 ± 28 mg/dL

SMILES: O=C(O)CCC(=O)c1ccc(OCc2cc(F)ccc2F)cc1 [Compound AU, 4-(4-(2,5-Difluorobenzyloxy)phenyl)-4-oxobutyric acid]
- change in vivo at 250 mg/kg [4]: -26.6 ± 2.8%
- Blood Glucose after 6 hours [4]: 224 ± 26 mg/dL

SMILES: O=C(O)CCC(=O)c1ccc(OCc2ccc(F)cc2F)cc1 [Compound AV, 4-(4-(2,4-Difluorobenzyloxy)phenyl)-4-oxobutyric acid]
- change in vivo at 250 mg/kg [4]: -32.1 ± 3%
- Blood Glucose after 6 hours [4]: 207 ± 23 mg/dL

SMILES: O=C(O)CCC(=O)c1ccc(OCC2CC2)cc1 [Compound AX, 4-(4-((Cyclopropyl)-methoxy)phenyl)-4-oxobutyric acid]
- change in vivo at 250 mg/kg [4]: -45.9 ± 2.4%
- Blood Glucose after 6 hours [4]: 165 ± 23 mg/dL

SMILES: O=C(O)CCC(=O)c1ccc(OCc2ccccc2C(F)(F)F)cc1 [Compound AY, 4-(4-(2-Trifluoromethylbenzyloxy)phenyl)-4-oxobutyric acid]
- change in vivo at 250 mg/kg [4]: -39.3 ± 2.9%
- Blood Glucose after 6 hours [4]: 185 ± 21 mg/dL

SMILES: O=C(O)CCSCc1ccc(OCc2c(F)cccc2F)cc1 [Compound AZ, 3-[(4-(2,6-Difluorobenzyloxy)phenyl)-methylthio]propionic acid]
- change in vivo at 250 mg/kg [4]: -39 ± 6.1%
- Blood Glucose after 6 hours [4]: 186 ± 10 mg/dL

SMILES: Cc1cccc(C)c1COc1cccc(C(=O)CCC(=O)[O-])c1.[Na+] [Compound BL, 4-(3-(2,6-Dimethylbenzyloxy)phenyl)-4-oxobutyric acid Sodium salt]
- Free Fatty Acids ([5]; 10 mg/kg oral gavage): 1571.8 ± 100.9 µmol/L
- Triglycerides ([5]; 10 mg/kg oral gavage): 80 ± 12.2 mg/dL
- Free Fatty Acids ([5]; 30 mg/kg oral gavage): 1413.2 ± 228.7 µmol/L
- Triglycerides ([5]; 30 mg/kg oral gavage): 66.4 ± 13.7 mg/dL
- Free Fatty Acids ([5]; 100 mg/kg oral gavage): 1133.5 ± 132.7 µmol/L
- Triglycerides ([5]; 100 mg/kg oral gavage): 41 ± 5.6 mg/dL
- serum triglycerides and free fatty acids ([5]; oral gavage): effective at lowering
- insulin serum levels ([5]; oral gavage, after 4 weeks of drug treatments (FIG. 1)): effective at lowering
- leptin serum levels ([5]; oral gavage, after 4 weeks of drug treatments (FIG. 2)): effective at lowering

SMILES: CC(C)OC(=O)C(C)(C)Oc1ccc(C(=O)c2ccc(Cl)cc2)cc1 [Fenofibrate, reference compound]
- Glucose (db/db mice [2]; 113 mg/kg daily oral): 563.2 ± 49.0 mg/dL
- Glucose (% of Control) (db/db mice [2]; 113 mg/kg daily oral): 81 ± 7 % of Control
- Free Fatty Acids ± SEM (db/db mice [2]; dose per Table 12: 113 mg/kg): 3318.5 ± 208.7 µM
- Triglycerides ± SEM (db/db mice [2]; dose per Table 12: 113 mg/kg): 109.3 ± 9.1 mg/dL

SMILES: Cc1cccc(Nc2cc(Cl)nc(SCC(=O)O)n2)c1C [Wy14643, reference compound]
- Free Fatty Acids ([5]; 10 mg/kg oral gavage): 1512.2 ± 172.9 µmol/L
- Triglycerides ([5]; 10 mg/kg oral gavage): 70.6 ± 10.8 mg/dL
- Free Fatty Acids ([5]; 30 mg/kg oral gavage): 1676 ± 237 µmol/L
- Triglycerides ([5]; 30 mg/kg oral gavage): 88 ± 12.5 mg/dL
- Free Fatty Acids ([5]; 100 mg/kg oral gavage): 1839.8 ± 154.8 µmol/L
- Triglycerides ([5]; 100 mg/kg oral gavage): 88.4 ± 18.8 mg/dL
